Test results as given in patent publication US12653191B2, “Active compound combinations” (Bayer Aktiengesellschaft, priority 2020, dated 2026).
Values joined by “and” are separate entries in the source; they are usually repeats but may differ in a detail not shown here. Equal entries are not always repeated. Where two headings read alike, the source gives them in different places.

Key:
Cercospora beticola [1] = assay: in vitro-Test with fungal microorganisms, Method B (tables C11-C20); type: cell-based
Summary of the method: (§1)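 Efficacy, relative to untreated control (0% = growth as in control, 100% = no growth), from photometric growth measurement at 600 nm after 3 to 7 days at 20° C., 85% relative humidity. Compound applied in methanol+emulsifier, solvent evaporated, then spore/mycelium-amended liquid medium added.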

Fusarium culmorum = assay: in vitro-Test with fungal microorganisms, Method B (tables G5-G15); type: cell-based
Summary of the method: as §1

Botrytis cinerea [2] = assay: in vitro-Test with fungal microorganisms, Method B (tables B15-B18); type: cell-based
Summary of the method: as §1

[3] = system: Ustilago segetum var. avenae; assay: in vitro-Test with fungal microorganisms, Method B (tables I6-I11); type: cell-based
Summary of the method: as §1

Diaporthe citri [4] = assay: in vitro-Test with fungal microorganisms, Method B (tables F12-F15); type: cell-based
Procedure: (§2) Example: In Vitro-Test with Fungal Microorganisms
(§3) Wells of 96-well microtiter plates are filled with 30 μl of a preparation of test compound or compound combination in methanol+emulsifier alkylaryl-polyglycol-ether. Thereafter, the solvent is evaporated in a hood. At the next step, 200 μl of liquid growth medium is given, that has been amended with an appropriate concentration of spores or mycelium suspension of the test fungus.
(§4) With the aid of a photometer, the extinction in all wells is measured at the wavelength of 600 nm.
(§5) The microtiter plates are incubated for 3 to 7 days at 20° C. and 85% relative humidity. After the incubation inhibition of growth is determined photometrically. Efficacy is calculated in relation to the untreated control, 0% efficacy means fungal growth as high as in untreated control while 100% efficacy means no fungal growth is measured.
(§6) The data in tables A1 to A12, B1 to B14, C1 to C10, D1 to D8, E1 to E8, F1 to F11, G1 to G4, H1 to H4 and I1 to I5 were collected according to Method A. The data in tables A13 to A22, B15 to B18, C11 to C20, E9 to E16, F12 to F15, G5 to G15, H5 to H8, I6 to I11 and J1 to J11 were collected according to Method B.

Cordana musae = assay: in vitro-Test with fungal microorganisms, Method B (tables E9-E16); type: cell-based; conditions: single active
Summary of the method: as §1

Alternaria alternata = assay: in vitro-Test with fungal microorganisms, Method B (tables A13-A22); type: cell-based
Summary of the method: as §1

Parastagonospora nodorum = assay: in vitro-Test with fungal microorganisms, Method B (tables H5-H8); type: cell-based
Procedure: as §2, §3, §4, §5, §6

Alternaria alternate = assay: in vitro-Test with fungal microorganisms, Method A (tables A1-A12); type: cell-based, Alternaria alternata; conditions: Alternaria, applied alone, read-out: Efficacy %
Summary of the method: (§7)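 First, compound in methanol with alkylaryl-polyglycol-ether was dried down in the plate. Next, spore or mycelium suspension in potato dextrose broth was added and extinction read at 620 nm. After 3-5 days at 20° C, 85% RH, reading was repeated and efficacy scored against untreated wells.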

Cercospora beticola [5] = assay: in vitro-Test with fungal microorganisms, Method A (tables C1-C10); type: cell-based; conditions: Cercospora beticola, read-out: Efficacy %
Summary of the method: as §7

Botrytis cinerea [6] = assay: in vitro-Test with fungal microorganisms, Method A (tables B1-B14); type: cell-based; conditions: Botrytis cinerea, alone, read-out: Efficacy %
Summary of the method: as §7

Colletotrichum coccodes = assay: in vitro-Test with fungal microorganisms, Method B (tables J1-J11); type: cell-based; conditions: Colletotrichum coccodes, single active compound at 5 ppm; read-out: Efficacy %
Summary of the method: as §1

[7] = system: Colletotrichum lindemuthianum; assay: in vitro-Test with fungal microorganisms, Method A (tables D1-D8); type: cell-based; conditions: Colletotrichum lindemuthianum, mixing partner alone, read-out: Efficacy %
Summary of the method: as §7

Diaporthe citri [8] = assay: in vitro-Test with fungal microorganisms, Method A (tables F1-F11); type: cell-based; conditions: Diaporthe citri, read-out: Efficacy
Summary of the method: as §7

[9] = Cercospora beticola, read-out: Efficacy %
[10] = Cercospora beticola, single compound, read-out: Efficacy %

COCC(=O)N(c1c(C)cccc1C)[C@H](C)C(=O)OC [(12.004) metalaxyl-M, metalaxyl-M (mefenoxam)]
Efficacy % (Cercospora beticola [1]; 4 ppm): 10% | Efficacy % (Cercospora beticola [1]; 20 ppm): 0% | Efficacy % (Cercospora beticola [1]; single compound, 20 ppm): 0% | Efficacy (Fusarium culmorum; 0.8 ppm, alone): 0% | Efficacy (Fusarium culmorum; 4 ppm alone): 0% | Efficacy (Fusarium culmorum; single active compound, 100 ppm): 22% and 23% | Efficacy % (Botrytis cinerea [2]; 0.8 ppm, alone): 5% | Efficacy % (Botrytis cinerea [2]; 4 ppm alone): 3% | Efficacy % (Botrytis cinerea [2]; 20 ppm alone): 4% | Efficacy % (Botrytis cinerea [2]; 100 ppm alone): 13% | Efficacy % ([3]; 0.8 ppm, listed as (12.004) metalaxyl-m): 11% | Efficacy % ([3]; 4 ppm): 8% | Efficacy % ([3]; 20 ppm): 12% | Efficacy (Diaporthe citri [4]; Table F14, 0.8 ppm alone): 0% | Efficacy (Diaporthe citri [4]; Table F14, 4 ppm alone): 0% | Efficacy (Diaporthe citri [4]; Table F14, 20 ppm alone): 0% | Efficacy (Cordana musae; 0.8 ppm): 0% | Efficacy (Cordana musae; 4 ppm): 0% and 9% | Efficacy (Cordana musae; 20 ppm): 0% and 8% | Efficacy (Alternaria alternata; 4 ppm): 10% | Efficacy (Parastagonospora nodorum; 0.8 ppm): 12% | Efficacy (Parastagonospora nodorum; 4 ppm): 8% | Efficacy (Parastagonospora nodorum; 20 ppm): 3%

COc1cc(C)c(C(=O)c2c(OC)ccc(Br)c2C)c(OC)c1OC [(15.016) metrafenone, metrafenone]
inhibition of growth at 0.2 ppm (Cercospora beticola [1]; [9]): 0% | inhibition of growth at 1 ppm (Cercospora beticola [1]; Cercospora beticola, 1 ppm, read-out: Efficacy %): 0% | inhibition of growth at 5 ppm (Cercospora beticola [1]; [9]): 10% | inhibition of growth at 0.2 ppm (Cercospora beticola [1]; [10]): 0% | inhibition of growth at 5 ppm (Cercospora beticola [1]; [10]): 1% | inhibition of growth at 0.8 ppm (Alternaria alternate; 0.8 ppm): 0% | inhibition of growth at 4 ppm (Alternaria alternate; 4 ppm): 0% | inhibition of growth at 20 ppm (Alternaria alternate; 20 ppm): 11% | inhibition of growth at 0.8 ppm (Cercospora beticola [5]; 0.8 ppm): 10% | inhibition of growth at 4 ppm (Cercospora beticola [5]; 4.0 ppm): 0% | inhibition of growth at 20 ppm (Cercospora beticola [5]; 20.0 ppm): 0% | inhibition of growth at 1 ppm (Fusarium culmorum; Fusarium culmorum, alone, read-out: Efficacy): 4% | inhibition of growth at 0.04 ppm (Fusarium culmorum; Fusarium culmorum, single active compound, 0.04 ppm, read-out: Efficacy): 0% | inhibition of growth at 0.2 ppm (Fusarium culmorum; Fusarium culmorum, single active compound, 0.2 ppm, read-out: Efficacy): 0% | inhibition of growth at 1 ppm (Fusarium culmorum; Fusarium culmorum, single active compound, read-out: Efficacy): 7% | inhibition of growth at 5 ppm (Fusarium culmorum; Fusarium culmorum, single active compound, 5 ppm, read-out: Efficacy): 13% | Efficacy (Fusarium culmorum; single active compound, 5 ppm): 13% | inhibition of growth at 0.04 ppm ([3]; 0.04 ppm, read-out: Efficacy %): 4% | inhibition of growth at 0.2 ppm ([3]; 0.2 ppm, read-out: Efficacy %): 0% | inhibition of growth at 4 ppm (Botrytis cinerea [6]; 4.0 ppm): 0% | inhibition of growth at 20 ppm (Botrytis cinerea [6]; 20.0 ppm): 0% | Efficacy (Diaporthe citri [4]; Table F12, 1 ppm alone): 3% | Efficacy (Diaporthe citri [4]; Table F12, 5 ppm alone): 0% | Efficacy (Diaporthe citri [4]; Table F14, 0.04 ppm alone): 0% | Efficacy (Diaporthe citri [4]; Table F14, 0.2 ppm alone): 0% | Efficacy (Diaporthe citri [4]; Table F14, 1 ppm alone): 0% | Efficacy (Diaporthe citri [4]; Table F14, 5 ppm alone): 0% | inhibition of growth at 0.04 ppm (Cordana musae; Neocordana musae, 0.04 ppm, read-out: Efficacy): 0% | inhibition of growth at 0.2 ppm (Cordana musae; Neocordana musae, 0.2 ppm, read-out: Efficacy): 0% | inhibition of growth at 1 ppm (Cordana musae; Neocordana musae, 1 ppm, read-out: Efficacy): 0% | inhibition of growth at 5 ppm (Cordana musae; Neocordana musae, 5 ppm, read-out: Efficacy): 11% | inhibition of growth at 5 ppm (Colletotrichum coccodes): 2% | Efficacy (Alternaria alternata; 0.2 ppm): 3% | inhibition of growth at 0.2 ppm (Alternaria alternata; Alternaria alternata, 0.2 ppm, read-out: Efficacy): 3% | inhibition of growth at 1 ppm (Alternaria alternata; Alternaria alternata, read-out: Efficacy): 6% | inhibition of growth at 5 ppm (Alternaria alternata; Alternaria alternata, 5 ppm, read-out: Efficacy): 16% | inhibition of growth at 1 ppm (Alternaria alternata; Alternaria alternata, single compound, read-out: Efficacy): 0% | inhibition of growth at 0.8 ppm ([7]; 0.8 ppm): 10% | inhibition of growth at 4 ppm ([7]; 4.0 ppm): 12% | inhibition of growth at 20 ppm ([7]; 20.0 ppm): 21% | inhibition of growth at 0.04 ppm (Parastagonospora nodorum; Parastagonospora nodorum, 0.04 ppm, read-out: Efficacy): 0% | inhibition of growth at 0.2 ppm (Parastagonospora nodorum; Parastagonospora nodorum, 0.2 ppm, read-out: Efficacy): 0% | inhibition of growth at 1 ppm (Parastagonospora nodorum; Parastagonospora nodorum, 1 ppm, read-out: Efficacy): 0% | inhibition of growth at 5 ppm (Parastagonospora nodorum; Parastagonospora nodorum, 5 ppm, read-out: Efficacy): 32% | inhibition of growth at 0.8 ppm (Diaporthe citri [8]; Table F11, 0.8 ppm alone): 0% | inhibition of growth at 4 ppm (Diaporthe citri [8]; Table F11, 4.0 ppm alone): 0% | inhibition of growth at 20 ppm (Diaporthe citri [8]; Table F11, 20.0 ppm alone): 0% | inhibition of growth at 0.8 ppm (Diaporthe citri [8]; applied alone, 0.8 ppm): 0% | inhibition of growth at 4 ppm (Diaporthe citri [8]; applied alone, 4.0 ppm): 10% | inhibition of growth at 20 ppm (Diaporthe citri [8]; applied alone, 20.0 ppm): 0%
